Experimental data: patent publication US4810422A, “Bile acid derivatives, their salts and production thereof” (priority 1986, dated 1989)

Assays:
[1] = tested on: P388 Mouse leukemia cells; experiment: Carcinolytic effect: inhibition of ^3 H-thymidine intake in P388 leukemia cells; assay type: cell-based; conditions: 2 hours then 1 hour with ^3 H-thymidine, vs. solvent control; for Percent inhibition against ^3 H-thymidine intake: 50 μM, 37° C
Method: P388 Mouse leukemia cells which were subjected to passage transplantation in CDF1 mice were suspended in RPMI1640 culture fluid containing 20 mM HEPES to a cell density of 5×10^5 cells/ml, and 1 ml each of aliquots were apportioned into test tubes. Each of the test samples was added to the suspension to a final concentration of 50 μM, and each preparation was incubated at 37° C with shaking (100 shuttles/min.). Two hours thereafter, ^3 H-thymidine was added to a final concentration of 0.25 μCi/ml, and the incubation was further carried out for 1 hour. Then the radioactivity taken in the cells was measured by a conventional method.

[2] = tested on: male ICR mice; experiment: Toxicity: single administration, life span observed for 3 weeks; assay type: in vivo
Method: Separately, 500 mg/kg of the above test compound was administered intraperitoneally to a group of eight male ICR mice, and their life spans were similarly observed for 3 weeks.

Row | SMILES | inhibition at 50 µM ([1]; Mus musculus, P388, 37° C, read-out: Percent inhibition against ^3 H-thymidine intake) | Percent inhibition against ^3 H-thymidine intake [1] | mortality, intraperitoneal ([2]; 500 mg/kg intraperitoneal, eight male ICR mice) | mortality, oral ([2]; 2,000 mg/kg oral once, 0.5% CMC, four male ICR mice)
1 | C[C@H](CCC(=O)O)[C@H]1CC[C@H]2[C@@H]3[C@H](O)C[C@@H]4C[C@H](O)CC[C@]4(C)[C@H]3C[C@H](O)[C@]12C [Cholic acid, reference compound] | 2% |  |  | 
2 | C[C@H](CCC(=O)O)[C@H]1CC[C@H]2[C@@H]3[C@H](O)C[C@@H]4C[C@H](OC(=O)Cc5ccc(N(CCCl)CCCl)cc5)CC[C@]4(C)[C@H]3C[C@H](O)[C@]12C [Compound No. 2, 3-O-[p-(N,N-bis(2-chloroethyl)amino)phenylacetyl] cholic acid] |  | 90% |  | 
3 | C[C@H](CCC(=O)O)[C@H]1CC[C@H]2[C@@H]3[C@H](O)C[C@@H]4C[C@H](OC(=O)c5ccc(CN(CCCl)CCCl)cc5)CC[C@]4(C)[C@H]3C[C@H](O)[C@]12C [Compound No. 31, 3-O-[p-(N,N-bis(2-chloroethyl)aminomethyl)benzoyl] cholic acid] |  | 94% |  | 
4 | C[C@H](CCC(=O)O)[C@H]1CC[C@H]2[C@@H]3[C@H](O)C[C@@H]4C[C@H](OC(=O)CN(CCCl)CCCl)CC[C@]4(C)[C@H]3C[C@H](O)[C@]12C [Compound No. 38, 3-O-[N,N-bis(2-chloroethyl)aminoacetyl] cholic acid] |  | 83% | No mortality case was observed | No mortality case was observed
5 | COc1ccc(COC(=O)CC[C@@H](C)[C@H]2CC[C@H]3[C@@H]4[C@H](O)C[C@@H]5C[C@H](OC(=O)c6ccc(OC(=O)N(CCCl)CCCl)cc6)CC[C@]5(C)[C@H]4C[C@H](O)[C@]23C)cc1 [Compound No. 52, p-Methoxybenzyl 3-O-[p-(N,N-bis(2-chloroethyl)aminocarbonyloxy)benzoyl] cholate] |  | 88% |  | 
